Reference: PubChem BioAssay (NCI)
“And” between values parts separate entries of the source, which are not always exact repeats. Equal entries are not always repeated.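 96-well plates; 48 h exposure; 5 concentrations. Endpoints by linear interpolation between flanking doses. Not reached: highest tested concentration assigned. GI50 is the concentration that inhibits growth by half. TGI marks complete inhibition of growth.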

How the values were obtained:
Test in all cases: NCI tumour cell line growth inhibition, 48 h
LOX IMVI melanoma = system: LOX IMVI melanoma
MDA-N = system: MDA-N
K-562 leukemia = system: K-562 leukemia
HS 578T breast = system: HS 578T breast
UO-31 renal = system: UO-31 renal
ACHN renal = system: ACHN renal
HCT-15 colon = system: HCT-15 colon
OVCAR-8 ovarian = system: OVCAR-8 ovarian
SR leukemia = system: SR leukemia
SNB-75 CNS = system: SNB-75 CNS

Row | Structure (SMILES) | TGI (LOX IMVI melanoma) | TGI (MDA-N) | TGI (K-562 leukemia) | TGI (HS 578T breast) | TGI (UO-31 renal) | TGI (ACHN renal) | TGI (HCT-15 colon) | TGI (OVCAR-8 ovarian) | TGI (SR leukemia) | TGI (SNB-75 CNS) | GI50 (HCT-15 colon) | GI50 (SNB-75 CNS) | GI50 (LOX IMVI melanoma) | GI50 (K-562 leukemia) | GI50 (HS 578T breast) | GI50 (UO-31 renal) | GI50 (ACHN renal) | GI50 (OVCAR-8 ovarian) | GI50 (SR leukemia)
1 | CC(CSC(=N)N)C(N)=O (centres undefined) | > 100 µM | > 100 µM | > 100 µM | > 100 µM | > 100 µM | > 100 µM | > 100 µM | > 100 µM | > 100 µM | > 100 µM |  |  |  |  |  |  |  |  | 
2 | Clc1ccc(Cl)c(N=Nc2cc3c4c(c2)CCN4CCC3)c1 | > 10 µM | > 10 µM | > 10 µM | > 10 µM | > 10 µM | > 10 µM | > 10 µM | > 10 µM | > 10 µM | > 10 µM |  |  |  |  |  |  |  |  | 
3 | COC(=O)c1ccc2c(c1)CC1(C2)Cc2cc3c(cc2C1)CCC3 | > 100 µM | > 100 µM | > 100 µM | > 100 µM | > 100 µM | > 100 µM | > 100 µM | > 100 µM | > 100 µM | > 100 µM |  |  |  |  |  |  |  |  | 
4 | COc1ccc(C(O)/C(=N/N)c2nc3ccc(Cl)cc3[nH]c2=O)cc1 (centres undefined) | > 100 µM | > 100 µM | > 100 µM | > 100 µM | > 100 µM | > 100 µM | > 100 µM | > 100 µM | > 100 µM | > 100 µM |  |  |  |  |  |  |  |  | 
5 | CC(=O)CCCCn1c(=O)c2c(nc(Br)n2C)n(C)c1=O | > 100 µM | > 100 µM | > 100 µM | > 100 µM | > 100 µM | > 100 µM | > 100 µM | > 100 µM | > 100 µM | > 100 µM |  |  |  |  |  |  |  |  | 
6 | Nc1nc(Nc2ccc(Cl)c(Cl)c2)nc2nc[nH]c12 | 36.9 µM | 33.5 µM | 47.4 µM | 20.2 µM | 21.3 µM | 25.2 µM | 37.2 µM | 28 µM | 33.2 µM | 20.9 µM |  |  |  |  |  |  |  |  | 
7 | CC(C)=CCCC(C)(OC1OC(CO)C(O)C(O)C1O)C1CCC2(C)C1C(O)CC1C3(C)CCC(O)C(C)(C)C3C(OC3OC(CO)C(O)C(O)C3OC3OC(C)C(O)C(O)C3O)CC12C (centres undefined) (tested in a mixture with another compound) | > 75 µM | > 75 µM | > 75 µM | > 75 µM | > 75 µM | > 75 µM | > 75 µM | > 75 µM | > 75 µM | > 75 µM |  |  |  |  |  |  |  |  | 
8 | O=C(CNc1ccccn1)Nn1cnc2ccc(S(=O)(=O)Nc3ccccn3)cc2c1=O | > 100 µM | > 100 µM | > 100 µM | > 100 µM | > 100 µM | > 100 µM | > 100 µM | > 100 µM | > 100 µM | > 100 µM |  |  |  |  |  |  |  |  | 
9 | CNC(=O)c1n[nH]n(C2CCCCC2)c1=S | > 100 µM | > 100 µM | > 100 µM | > 100 µM | > 100 µM | > 100 µM | > 100 µM | > 100 µM | > 100 µM | > 100 µM |  |  |  |  |  |  |  |  | 
10 | CCc1n[nH]c(=O)n1CCCCCCCCn1c(CC)n[nH]c1=O | > 100 µM | > 100 µM | > 100 µM | > 100 µM | > 100 µM | > 100 µM | > 100 µM | > 100 µM | > 100 µM | > 100 µM |  |  |  |  |  |  |  |  | 
11 | COc1ccc(C2c3cc4c(cc3OC(NNc3ccccc3)C2C)OCO4)cc1 (centres undefined) | > 100 µM | > 100 µM | > 100 µM | > 100 µM | > 100 µM | 49.5 µM | > 100 µM | 63.5 µM | 16.3 µM | > 100 µM |  |  |  |  |  |  |  |  | 
12 | [N-]=[N+]=Nc1ccccc1-c1ccccc1[N+](=O)[O-] | > 100 µM | > 100 µM | > 100 µM | > 100 µM | > 100 µM | > 100 µM | > 100 µM | > 100 µM | > 100 µM | > 100 µM |  |  |  |  |  |  |  |  | 
13 | CCOC(=O)C(NC(=O)OCc1ccccc1)C(=O)O (centres undefined) | > 100 µM | > 100 µM | > 100 µM | > 100 µM | > 100 µM | > 100 µM | > 100 µM | > 100 µM | > 100 µM | > 100 µM |  |  |  |  |  |  |  |  | 
14 | CCC(NC(C)c1ccccc1)C(=O)c1ccc(OCc2ccccc2)c(OCc2ccccc2)c1 (centres undefined) | > 100 µM | > 100 µM | > 100 µM | > 100 µM | > 100 µM | > 100 µM | > 100 µM | > 100 µM | > 100 µM | > 100 µM |  |  |  |  |  |  |  |  | 
15 | CC(=O)OI1NC(=O)c2ccccc21 | > 100 µM | > 100 µM | > 100 µM | > 100 µM | > 100 µM | > 100 µM | > 100 µM | > 100 µM | > 100 µM | > 100 µM |  |  |  |  |  |  |  |  | 
16 | C=C1CC(C)(COc2ccc3c(C)c(Cl)c(=O)oc3c2)OC1=O (centres undefined) | 2.91 µM | 5.45 µM | 5.98 µM | > 100 µM | 9.63 µM | 11.4 µM | 5.86 µM | 17.3 µM | 6.47 µM | 7.95 µM |  |  |  |  |  |  |  |  | 
17 | CC1=CC(=O)CC2(C)CCC(C(C)CC(=O)CC(C)C)CC12OO (centres undefined) | 31.5 µM and 27.9 µM | 34.7 µM and 33.4 µM | 75 µM and 31.9 µM | 88.3 µM and > 100 µM | 29.8 µM and 34.7 µM | 30.8 µM and 31.4 µM | 30.1 µM and > 100 µM | 90.2 µM and 45.4 µM | 41.5 µM and 41.4 µM | 44.9 µM and > 100 µM | 16.5 µM and 35.3 µM | 19.8 µM and 55.7 µM |  |  |  |  |  |  | 
18 | O=C(NCCN1CCCCC1)c1ccc(Br)cc1 | > 100 µM | > 100 µM | > 100 µM | > 100 µM | > 100 µM | > 100 µM | > 100 µM | > 100 µM | > 100 µM | > 100 µM |  |  |  |  |  |  |  |  | 
19 | O=C1CN(c2ccccc2)Cc2nc(Cl)ccc2N1 | > 100 µM | > 100 µM | > 100 µM | > 100 µM | > 100 µM | > 100 µM | > 100 µM | > 100 µM | > 100 µM | > 100 µM |  |  |  |  |  |  |  |  | 
20 | CC(C)OC(=O)c1ccc(NCc2cc(O)ccc2O)cc1 | 15.9 µM | 13.2 µM | 6.98 µM | > 29.6 µM | 2.91 µM | 13.5 µM | 9.21 µM | > 21.9 µM | 10.2 µM | 18.6 µM |  |  |  |  |  |  |  |  | 
21 | CC1=NN(c2nc(N)nc(NS(=O)(=O)c3cc(C)c(Cl)cc3S)n2)C(C)(C)C1 | > 10 µM | > 10 µM | > 10 µM | > 10 µM | > 10 µM | > 10 µM | > 10 µM | > 10 µM | > 10 µM | > 10 µM |  |  |  |  |  |  |  |  | 
22 | Cc1ccc(/C=C2\Sc3scc(-c4ccccc4)[n+]3C2=O)cc1 | > 54.5 µM | > 67.1 µM | 31.5 µM | 37.5 µM | 32 µM | 51.7 µM | 50.8 µM | > 56.6 µM | 26.4 µM | > 58.9 µM |  |  |  |  |  |  |  |  | 
23 | CC1=NN=C(C)C1N=Nc1ccc2nc(C)[nH]c2c1 | > 63.9 µM | > 100 µM | > 100 µM | 29.4 µM | 77.5 µM | > 76.8 µM | > 100 µM | > 100 µM | 48.3 µM | 64.4 µM |  |  |  |  |  |  |  |  | 
24 | NS(=O)(=O)c1ccc(NC(=O)N/N=C/c2ccccc2O)cc1 | > 100 µM | 70.2 µM | > 100 µM | > 100 µM | > 100 µM | > 100 µM | > 100 µM | > 100 µM | > 100 µM | > 100 µM |  |  |  |  |  |  |  |  | 
25 | CCOC(=O)N/N=C(/N)c1cccc(Br)c1 | > 100 µM | > 100 µM | > 100 µM | > 100 µM | > 100 µM | > 100 µM | > 100 µM | > 100 µM | > 100 µM | > 100 µM |  |  |  |  |  |  |  |  | 
26 | COc1nc(N=P(c2ccccc2)(c2ccccc2)c2ccccc2)cc(=O)n1C | > 100 µM | > 100 µM | > 100 µM | > 100 µM | > 100 µM | > 100 µM | > 100 µM | > 100 µM | > 100 µM | > 100 µM |  |  |  |  |  |  |  |  | 
27 | COC1(CC[C@@H](C)COC2OC(CO)C(O)C(O)C2O)O[C@H]2C[C@H]3[C@@H]4CC=C5C[C@@H](OC6OC(CO)C(OC7OC(C)C(O)C(O)C7O)C(O)C6OC6OC(C)C(O)C(O)C6O)CC[C@]5(C)[C@H]4CC[C@]3(C)[C@H]2[C@@H]1C (some centres undefined) | 1.99 µM | 7.43 µM | 16 µM | 3.99 µM | 5.2 µM | 13.9 µM | 3.66 µM | 8.47 µM |  | 3.37 µM | 1.72 µM |  | 0.645 µM | 5.12 µM | 1.18 µM | 1.69 µM | 6.24 µM | 2.39 µM | 2.96 µM
28 | C[C@]12C=CC(=O)C=C1CC[C@@H]1[C@@H]2CC[C@@]2(C)[C@H]1CC[C@]2(O)C(N)=O | > 100 µM | > 100 µM | > 100 µM | > 100 µM | > 100 µM | > 100 µM | > 100 µM | > 100 µM | > 100 µM | > 100 µM |  |  |  |  |  |  |  |  | 
29 | O=C1N=C2SC=C(NC(=S)Nc3ccccc3)N2NC12c1ccccc1-c1ccccc12 | > 10 µM | > 10 µM | > 10 µM | > 10 µM | > 10 µM | > 10 µM | > 10 µM | > 10 µM | > 10 µM | > 10 µM |  |  |  |  |  |  |  |  | 
30 | COC(=O)C1(NC(=O)C(Cc2ccccc2)N(C(=O)OC(C)(C)C)C(=O)OC(C)(C)C)CCCC1 (centres undefined) | > 100 µM | > 100 µM | > 100 µM | > 100 µM | > 100 µM | > 10 µM | > 100 µM | > 100 µM | > 10 µM | > 100 µM |  |  |  |  |  |  |  |  | 
